Measurements published in patent US10421751B2, “Dihydro-2H-benzo[b][1,4]oxazine sulfonamide and related compounds for use as agonists of RORγ and the treatment of disease” (Lycera Corporation, priority 2015, dated 2019).

Tests used:
[1] = target: T1, Gal4-RORγ-LBD (Homo sapiens, UniProt P51449); assay: Gal4-RORγ Luciferase Reporter Assay in HEK-293T Cells; assay type: cell-based; settings: for EC50: HEK-293 cells, in presence of 2 μM ursolic acid, overnight incubation, read-out: Ga14-RORγ Assay EC50; for Ga14-RORγ Assay Max Response: upper plateau of 4-parameter fit, luciferase signal in the absence of ursolic acid or test compound defined at 100
T1 construct: expressed in transfected cells; pcDNA3.1neo plasmid, co-transfected with pGL4.31 Gal4-luciferase reporter
T1 sequence (P51449 269-508 limits assumed): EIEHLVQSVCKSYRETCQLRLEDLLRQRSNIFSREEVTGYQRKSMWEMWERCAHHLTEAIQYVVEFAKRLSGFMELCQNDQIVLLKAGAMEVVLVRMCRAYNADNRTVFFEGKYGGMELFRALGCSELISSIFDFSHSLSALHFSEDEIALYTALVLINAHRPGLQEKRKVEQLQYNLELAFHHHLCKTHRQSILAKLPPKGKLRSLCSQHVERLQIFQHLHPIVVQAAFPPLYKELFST
Method: In the following protocol, HEK-293 cells were transfected with a construct comprising the Gal4 DNA binding domain fused to the ligand binding domain of RORγ (Gal4-RORγ-LBD) in a pcDNA3.1neo plasmid, and also with a reporter construct comprising pGL4.31 Gal4-luciferase (Promega). Control cells were prepared similarly using empty pcDNA3.1neo and pGL4.31 vectors.
Trans-IT reagent (Mirus, 60 μL) at room temperature was added drop wise to OptiMEM (Invitrogen, 1.5 ml). This reagent mixture was mixed by inversion then incubated for 5 to 30 minutes at room temperature. It then was added to a solution of both expression vectors (5 μg each), mixed, and incubated at room temperature for about 20 minutes. HEK-293 cells were harvested from incubation flasks by removing the media, treating with TrypLE Express (Invitrogen), and incubating until the cells detached from the bottom of the flask (approximately 2-5 minutes). 10 Million cells were collected by centrifugation and re-suspended in 10 mL of Dulbecco's Modified Eagle Medium, High Glucose (DMEM, Invitrogen) containing 10% Fetal Bovine Serum and 100 IU each of penicillin and streptomycin. The re-suspended cells and the transfection mixture were added to a T75 flask, mixed and incubated overnight at 37° C. and 5% CO2.
The cells were harvested as described above, counted, and centrifuged to obtain the desired number of cells, then re-suspended in complete growth media at 0.75×10^6 cells/mL. The RORγ antagonist, ursolic acid, was added to the cells at a final concentration of 2 μM. Cells were plated at 20 μL of cell suspension/well (10,000-15,000 cells/well) in white tissue culture treated 384 well plates. Test compounds were dissolved at 10 mM in DMSO then diluted into complete growth medium to 5× the final intended test concentration. These drug stock solutions, 5 μL/well were added to the tissue culture plate. The final DMSO concentration was 0.2%. The plates were briefly centrifuged then incubated overnight at 37° C. and 5% CO2. To conduct the assay, the tissue culture plates were allowed to equilibrate to room temperature and One-Glo luciferase reagent (Promega, 25 μL/well) was added. The plates were briefly centrifuged then incubated at room temperature for 10 minutes. The luciferase intensity was read on an Envision plate reader (Perkin Elmer). RORγ activity was determined relative to controls and plotted as a function of test compound concentration using PRISM (GraphPad) to determine a 50% effective concentration (EC50). The luciferase signal in the absence of ursolic acid or test compound is defined at 100. The Max Response is the upper plateau in the signal as determined by line-fit using a 4-parameter logistic model in PRISM (GraphPad).

[2] = target: T2, RORγ-LBD (Homo sapiens, UniProt P51449); assay: RORγ-Ligand Binding Domain (LBD) TR-FRET Assay; assay type: biochemical; settings: for EC50: in presence of 2 μM RORγ antagonist ursolic acid, SRC1 coactivator peptide; for TR-FRET Assay Max Response: upper plateau of 4-parameter fit, signal in the absence of ursolic acid or test compound set as 100
T2 construct: made in house; host or cells: SF9 cells, baculovirus expression system; used as diluted lysate
T2 sequence (P51449 269-508 limits assumed): T1 sequence (P51449 269-508 limits assumed)
Method: HIS-tagged RORγ-LBD protein was expressed in SF9 cells using a baculovirus expression system. The lysate was diluted in assay buffer (50 mM Tris pH 7.0, 50 mM KCl, 1 mM EDTA, 0.1 mM DTT, 0.01% BSA) to obtain RORγ-LBD final concentration of ˜3 nM in a 384-well assay plate (need to titrate for each batch of protein).
A stock of biotinylated-LXXLL peptide from coactivator SRC1 (Biotin-[…]) was prepared in assay buffer and added to each well (200 nM final concentration). A solution of Europium tagged anti-HIS antibody (0.6 nM final concentration) and APC-conjugated streptavidin (30 nM final concentration) were also added to each well. RORγ antagonist ursolic acid was also included at a final concentration of 2 μM. Compounds were diluted in DMSO and further diluted in assay buffer with a final DMSO concentration at 1%.
The final assay mixture was incubated overnight at 4° C. or 2 hours at room temperature, and the fluorescence signal was measured on an Envision plate reader: (Excitation filter=340 nm; APC emission=665 nm; Europium emission=615 nm; dichroic mirror=D400/D630; delay time=100 μs, integration time=200 μs). 50% Effective concentration (EC50) values for test compounds were calculated from the quotient of the fluorescence signal at 665 nm divided by the fluorescence signal at 615 nm. The quotient of the fluorescence signals in the absence of ursolic acid or test compound is set as 100. Max Response is defined as the upper plateau in the signal as determined by line-fit using a 4-parameter logistic model in PRISM (GraphPad).

| SMILES | EC50 [1] [nM] | Ga14-RORγ Assay Max Response [1] | EC50 [2] [nM] | TR-FRET Assay Max Response [2] |
| --- | --- | --- | --- | --- |
| C/C(=C\c1ccc2c(c1)N(S(=O)(=O)c1cccc(C(F)(F)F)c1)C[C@H](CCc1n[nH]c(=O)o1)O2)c1c(F)cccc1Cl | 100 to 5000 | ** (a value in the range of greater than 90 to 150) | < 100 | ** (a value in the range of greater than 90 to 150) |
| C/C(=C\c1ccc2c(c1)N(S(=O)(=O)c1cccc(C(F)(F)F)c1)C[C@H](CCc1nn[nH]n1)O2)c1c(F)cccc1Cl | 100 to 5000 | *** (a value in the range of greater than 150 to 200) | < 100 | *** (a value in the range of greater than 150 to 200) |
| C/C(=C\c1ccc2c(c1)N(S(=O)(=O)c1cccc(C(F)(F)F)c1)C[C@H](CCn1ccnc1C)O2)c1c(F)cccc1Cl | 100 to 5000 | ** (a value in the range of greater than 90 to 150) | < 100 | *** (a value in the range of greater than 150 to 200) |
| C/C(=C\c1ccc2c(c1)N(S(=O)(=O)c1cccc(C(F)(F)F)c1)C[C@H](CCn1cccn1)O2)c1c(F)cccc1Cl | 100 to 5000 | ** (a value in the range of greater than 90 to 150) | < 100 | *** (a value in the range of greater than 150 to 200) |
| C/C(=C\c1ccc2c(c1)N(S(=O)(=O)c1cccc(C(F)(F)F)c1)C[C@H](CCCn1cc(C(=O)O)nn1)O2)c1c(F)cccc1Cl | 100 to 5000 | ** (a value in the range of greater than 90 to 150) | < 100 | *** (a value in the range of greater than 150 to 200) |
| C/C(=C\c1ccc2c(c1)N(S(=O)(=O)c1cccc(C(F)(F)F)c1)C[C@H](CCCn1ccnn1)O2)c1c(F)cccc1Cl | 100 to 5000 | ** (a value in the range of greater than 90 to 150) | < 100 | *** (a value in the range of greater than 150 to 200) |
| C/C(=C\c1ccc2c(c1)N(S(=O)(=O)c1cccc(C(F)(F)F)c1)C[C@H](CCCn1cccn1)O2)c1c(F)cccc1Cl | 100 to 5000 | ** (a value in the range of greater than 90 to 150) | < 100 | *** (a value in the range of greater than 150 to 200) |
| C/C(=C\c1ccc2c(c1)N(S(=O)(=O)c1cccc(C(F)(F)F)c1)[C@H](C)[C@H](Cn1cccn1)C2)c1c(F)cccc1Cl | 100 to 5000 | ** (a value in the range of greater than 90 to 150) | < 100 | *** (a value in the range of greater than 150 to 200) |
| C/C(=C\c1ccc2c(c1)N(S(=O)(=O)c1cccc(C(F)(F)F)c1)[C@H](C)[C@H](Cn1ccnn1)C2)c1c(F)cccc1Cl | > 10000 | * (a value in the range of 40 to 90) | < 100 | *** (a value in the range of greater than 150 to 200) |
| C/C(=C\c1ccc2c(c1)N(S(=O)(=O)c1cccc(C(F)(F)F)c1)C[C@H](CCCc1noc(=O)[nH]1)O2)c1c(F)cccc1Cl | 100 to 5000 | ** (a value in the range of greater than 90 to 150) | 100 to 5000 | *** (a value in the range of greater than 150 to 200) |
| C/C(=C\c1ccc2c(c1)N(S(=O)(=O)c1cccc(C(F)(F)F)c1)C[C@H](CCCc1nn[nH]n1)O2)c1c(F)cccc1Cl | 100 to 5000 | ** (a value in the range of greater than 90 to 150) | 100 to 5000 | *** (a value in the range of greater than 150 to 200) |
| CCn1cc(S(=O)(=O)N2C[C@H](CCc3n[nH]c(=O)o3)Oc3ccc(/C=C(\C)c4c(F)cccc4Cl)cc32)c(OCCO)n1 | 100 to 5000 | ** (a value in the range of greater than 90 to 150) | < 100 | **** (a value greater than 200) |
| CCOc1ncc(Cl)cc1S(=O)(=O)N1C[C@H](CCc2n[nH]c(=O)o2)Oc2ccc(/C=C(\C)c3c(F)cccc3Cl)cc21 | 100 to 5000 | ** (a value in the range of greater than 90 to 150) | < 100 | *** (a value in the range of greater than 150 to 200) |
| C/C(=C\c1ccc2c(c1)N(S(=O)(=O)c1cc(Cl)cnc1OCCO)C[C@H](CCc1n[nH]c(=O)o1)O2)c1c(F)cccc1Cl | 100 to 5000 | ** (a value in the range of greater than 90 to 150) | < 100 | **** (a value greater than 200) |
| CCn1cc(S(=O)(=O)N2C[C@H](CCc3n[nH]c(=O)o3)Oc3ccc(/C=C/c4c(Cl)cccc4C(F)(F)F)cc32)c(OCCO)n1 | 100 to 5000 | ** (a value in the range of greater than 90 to 150) | < 100 | **** (a value greater than 200) |
| CCOc1ncc(C(F)(F)F)cc1S(=O)(=O)N1C[C@H](CCc2n[nH]c(=O)o2)Oc2ccc(/C=C/c3c(Cl)cccc3C(F)(F)F)cc21 | 100 to 5000 | ** (a value in the range of greater than 90 to 150) | 100 to 5000 | **** (a value greater than 200) |
| O=c1[nH]nc(CC[C@H]2CN(S(=O)(=O)c3cccc(OC(F)F)c3)c3cc(/C=C/c4c(Cl)cccc4C(F)(F)F)ccc3O2)o1 | 100 to 5000 | ** (a value in the range of greater than 90 to 150) | < 100 | **** (a value greater than 200) |
| CCOc1nn(CC)cc1S(=O)(=O)N1C[C@H](CCc2n[nH]c(=O)o2)Oc2ccc(/C=C/c3c(Cl)cccc3C(F)(F)F)cc21 | 100 to 5000 | ** (a value in the range of greater than 90 to 150) | < 100 | **** (a value greater than 200) |
| CCOc1ncc(C(F)(F)F)cc1S(=O)(=O)N1C[C@H](CCc2n[nH]c(=O)o2)Oc2ccc(/C=C(\C)c3c(F)cccc3Cl)cc21 | 100 to 5000 | ** (a value in the range of greater than 90 to 150) | < 100 | **** (a value greater than 200) |
| C/C(=C\c1ccc2c(c1)N(S(=O)(=O)c1ccc(F)c(OC(F)F)c1)C[C@H](CCc1n[nH]c(=O)o1)O2)c1c(F)cccc1Cl | 100 to 5000 | ** (a value in the range of greater than 90 to 150) | < 100 | **** (a value greater than 200) |
